Measurements: patent US9714232B2, “Substituted piperazine compounds and methods of use thereof” (Sunshine Lake Pharma Co., Ltd., priority 2013, dated 2017)
pIC50, pKi: −log10 of the molar value.

Key:
[1] = molecular target: serotonin transporter in rat synaptosome (Rattus norvegicus (Rat), UniProt P31652); test: Inhibitory effect on [3H]5-HT uptake in rat synaptosome; format: biochemical; conditions: rat brain synaptosomes, 0.1 μCi [3H]5-HT, 37° C., 15 minutes
Method: The synaptosomes (150 μg) prepared from a rat brain were incubated at 37° C. for 15 minutes with 0.1 μCi [^3H]5-HT in the absence or presence of the test compound or the reference compound in a buffer solution containing 106.2 mM NaCl, 4.5 mM KCl, 2.25 mM MgSO4, 1.08 mM NaH2PO4, 22.5 mM NaHCO3, 9.9 mM glucose, 9 μM EGTA and 45 μM ascorbic acid (pH 7.4).
The basal control activity was determined by incubating the same mixture at 4° C. for 15 minutes in the presence of 10 μM imipramine to block the uptake of 5-HT, which was taken as the standard reference compound and tested in each experiment at several concentrations to obtain an inhibition curve.
Following the incubation, the samples were filtered rapidly under vacuum through glass fiber filters (GF/B, Packard) and rinsed twice with an ice-cold incubation buffer using a 96-sample cell harvester (Unifilter, Packard) to eliminate free [^3H]5-HT. The filters were dried and the retained radioactivity was measured in a scintillation counter (Topcount, Packard) using a scintillation cocktail (Microscint 0, Packard). The experimental results were expressed as a percent inhibition of the control uptake of [^3H]5-HT.
Inhibition of serotonin transporter in rat synaptosome was measured by the concentrations of [^3H]5-HT.

human 5-HT1A receptor = human 5-HT1A receptor (Homo sapiens (Human), UniProt P08908); test: Affinity for human 5-HT1A receptor ([3H]8-OH-DPAT binding, HEK-293 cell homogenates); conditions: 0.3 nM [3H]8-OH-DPAT, human HEK-293 cell homogenates, 22° C., 60 minutes; Ki from IC50 by ChengPrusoff equation
human 5-HT1A receptor, sequence (P08908 whole entry): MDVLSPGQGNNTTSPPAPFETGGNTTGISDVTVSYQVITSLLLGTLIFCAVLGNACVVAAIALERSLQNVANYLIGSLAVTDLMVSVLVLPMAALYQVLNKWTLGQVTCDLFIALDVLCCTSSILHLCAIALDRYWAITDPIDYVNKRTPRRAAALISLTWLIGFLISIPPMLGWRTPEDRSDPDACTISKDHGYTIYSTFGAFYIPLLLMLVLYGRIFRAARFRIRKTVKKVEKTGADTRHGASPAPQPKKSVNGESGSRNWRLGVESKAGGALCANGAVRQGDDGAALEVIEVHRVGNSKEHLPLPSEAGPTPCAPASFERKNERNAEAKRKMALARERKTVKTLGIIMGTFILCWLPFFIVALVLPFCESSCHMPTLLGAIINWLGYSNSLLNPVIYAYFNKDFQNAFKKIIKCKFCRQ
Method: Human HEK-293 cell homogenates (36 μg protein) were incubated at 22° C. for 60 minutes with 0.3 nM [^3H]8-0H-DPAT (Perkin-Elmer) in the absence or presence of the test compound in a buffer solution containing 50 mM Tris-HCl (pH 7.4), 10 mM MgSO4, 0.5 mM EDTA and 2 μg/ml aprotinine.
The non-specific binding value was determined by incubating the same mixture in the presence of 10 μM 8-OH-DPAT, which was used as the standard reference compound and tested in each experiment at several concentrations to obtain a competition curve.
Following the incubation, the samples were filtered rapidly under vacuum through glass fiber filter (GF/B, Packard) presoaked with 0.3% PEI and rinsed several times with ice-cold 50 mM Tris-HCl using a 96-sample cell harvester (Unifilter, Packard). The filters were dried and the retained radioactivity was measured in a scintillation counter (Topcount, Packard) using a scintillation cocktail (Microscint 0, Packard). The experimental results were expressed as a percent inhibition of the control radioligand specific binding.
Binding assay of [^3H] 8-OH-DPAT (0.3 nM) with 5-HT1A receptor in human HEK-293 cell was tested by scintillation proximity assay of membrane.

serotonin transporter in rat synaptosome, sequence (P31652 whole entry): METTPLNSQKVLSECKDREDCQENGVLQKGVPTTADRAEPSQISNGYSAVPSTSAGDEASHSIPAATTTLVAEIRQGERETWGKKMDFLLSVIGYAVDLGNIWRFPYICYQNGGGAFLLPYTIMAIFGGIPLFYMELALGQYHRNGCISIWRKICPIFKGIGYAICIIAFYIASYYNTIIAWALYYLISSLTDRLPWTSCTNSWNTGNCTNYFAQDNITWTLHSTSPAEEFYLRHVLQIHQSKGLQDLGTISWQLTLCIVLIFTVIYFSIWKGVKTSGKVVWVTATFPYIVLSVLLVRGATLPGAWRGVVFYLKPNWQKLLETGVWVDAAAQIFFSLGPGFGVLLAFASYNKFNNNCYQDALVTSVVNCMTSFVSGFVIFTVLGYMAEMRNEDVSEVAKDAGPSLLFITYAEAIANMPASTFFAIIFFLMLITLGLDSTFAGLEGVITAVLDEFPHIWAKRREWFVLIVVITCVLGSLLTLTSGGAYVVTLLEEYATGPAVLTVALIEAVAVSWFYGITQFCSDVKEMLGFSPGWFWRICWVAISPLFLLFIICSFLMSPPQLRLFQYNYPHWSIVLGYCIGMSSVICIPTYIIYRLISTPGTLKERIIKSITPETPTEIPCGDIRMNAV

| pIC50 [1] | pKi (human 5-HT1A receptor) | Structure (SMILES) |
| --- | --- | --- |
| 8.37 | 8.60 | O=C1CCCCN1c1ccc(N2CCN(CCCCc3c[nH]c4ccc(F)cc34)CC2)cc1 [Example 1, 1-(4-(4-(4-(5-fluoro-1H-indol-3-yl)butyl)piperazin-1-yl)phenyl)piperidin-2-one] |
| 8.74 | 8.72 | N#Cc1ccc2[nH]cc(CCCCN3CCN(c4ccc(N5CCCCC5=O)cc4)CC3)c2c1 [Example 2, 3-(4-(4-(4-(2-oxopiperidin-1-yl)phenyl)piperazin-1-yl)butyl)-1H-indole-5-carbonitrile] |
| 8.38 | 8.49 | O=C1CCCCN1c1ccc(N2CCN(CCCc3c[nH]c4ccc(F)cc34)CC2)cc1 [Example 3, 1-(4-(4-(3-(5-fluoro-1H-indol-3-yl)propyl)piperazin-1-yl)phenyl)piperidin-2-one] |
| 8.07 | 8.92 | N#Cc1ccc2[nH]cc(CCCN3CCN(c4ccc(N5CCCCC5=O)cc4)CC3)c2c1 [Example 4, 3-(3-(4-(4-(2-oxopiperidin-1-yl)phenyl)piperazin-1-yl)propyl)-1H-indole-5-carbonitrile] |
| 8.20 | 8.51 | O=C1COCCN1c1ccc(N2CCN(CCCCc3c[nH]c4ccc(F)cc34)CC2)cc1 [Example 5, 4-(4-(4-(4-(5-fluoro-1H-indol-3-yl)butyl)piperazin-1-yl)phenyl)morpholin-3-one] |
| 8.66 | 8.68 | N#Cc1ccc2[nH]cc(CCCCN3CCN(c4ccc(N5CCOCC5=O)cc4)CC3)c2c1 [Example 6, 3-(4-(4-(4-(3-oxomorpholino)phenyl)piperazin-1-yl)butyl)-1H-indole-5-carbonitrile] |
| 8.14 | 8.19 | O=C1COCCN1c1ccc(N2CCN(CCCc3c[nH]c4ccc(F)cc34)CC2)cc1 [Example 7, 4-(4-(4-(3-(5-fluoro-1H-indol-3-yl)propyl)piperazin-1-yl)phenyl)morpholin-3-one] |
| 8.00 | 8.49 | N#Cc1ccc2[nH]cc(CCCN3CCN(c4ccc(N5CCOCC5=O)cc4)CC3)c2c1 [Example 8, 3-(3-(4-(4-(3-oxomorpholino)phenyl)piperazin-1-yl)propyl)-1H-indole-5-carbonitrile] |
| 8.10 | 9.64 | N#Cc1ccc2[nH]cc(CCCCN3CCN(c4ccc(-n5ccccc5=O)cc4)CC3)c2c1 [Example 9, 3-(4-(4-(4-(2-oxopyridin-1(2H)-yl)phenyl)piperazin-1-yl)butyl)-1H-indole-5-carbonitrile] |
| 8.80 | 9.72 | O=c1ccccn1-c1ccc(N2CCN(CCCCc3c[nH]c4ccc(F)cc34)CC2)cc1 [Example 10, 1-(4-(4-(4-(5-fluoro-1H-indol-3-yl)butyl)piperazin-1-yl)phenyl)pyridin-2(1H)-one] |
| 9.01 | 8.92 | N#Cc1ccc2[nH]cc(CCCN3CCN(c4ccc(-n5ccccc5=O)cc4)CC3)c2c1 [Example 11, 3-(3-(4-(4-(2-oxopyridin-1(2H)-yl)phenyl)piperazin-1-yl)propyl)-1H-indole-5-carbonitrile] |
| 8.15 | 9.06 | O=c1ccccn1-c1ccc(N2CCN(CCCc3c[nH]c4ccc(F)cc34)CC2)cc1 [Example 12, 1-(4-(4-(3-(5-fluoro-1H-indol-3-yl)propyl)piperazin-1-yl)phenyl)pyridin-2(1H)-one] |
| 8.85 | 8.39 | N#Cc1ccc2[nH]cc(CCCCCN3CCN(c4ccc(-n5ccccc5=O)cc4)CC3)c2c1 [Example 14, 3-(5-(4-(4-(2-oxopyridin-1(2H)-yl)phenyl)piperazin-1-yl)pentyl)-1H-indole-5-carbonitrile] |
| 6.48 |  | N#Cc1ccc2[nH]cc(C(O)CCCN3CCN(c4ccc(-n5ccccc5=O)cc4)CC3)c2c1 (stereo not shown) [Example 15, 3-(1-hydroxy-4-(4-(4-(2-oxopyridin-1(2H)-yl)phenyl)piperazin-1-yl)butyl)-1H-indole-5-carbonitrile] |
| 6.77 |  | N#Cc1ccc2[nH]cc(C(O)CCN3CCN(c4ccc(-n5ccccc5=O)cc4)CC3)c2c1 (stereo not shown) [Example 16, 3-(1-hydroxy-3-(4-(4-(2-oxopyridin-1(2H)-yl)phenyl)piperazin-1-yl)propyl)-1H-indole-5-carbonitrile] |
| 8.77 | 9.32 | Cc1ccn(-c2ccc(N3CCN(CCCCc4c[nH]c5ccc(C#N)cc45)CC3)cc2)c(=O)c1 [Example 17, 3-(4-(4-(4-(4-methyl-2-oxopyridin-1(2H)-yl)phenyl)piperazin-1-yl)butyl)-1H-indole-5-carbonitrile] |
| 8.12 | 9.05 | Cc1ccn(-c2ccc(N3CCN(CCCc4c[nH]c5ccc(C#N)cc45)CC3)cc2)c(=O)c1 [Example 18, 3-(3-(4-(4-(4-methyl-2-oxopyridin-1(2H)-yl)phenyl)piperazin-1-yl)propyl)-1H-indole-5-carbonitrile] |
| 8.70 | 7.48 | Cc1ccn(-c2ccc(N3CCN(CCc4c[nH]c5ccc(C#N)cc45)CC3)cc2)c(=O)c1 [Example 19, 3-(2-(4-(4-(4-methyl-2-oxopyridin-1(2H)-yl)phenyl)piperazin-1-yl)ethyl)-1H-indole-5-carbonitrile] |
| 8.44 | 8.33 | Cc1ccn(-c2ccc(N3CCN(CCCCCc4c[nH]c5ccc(C#N)cc45)CC3)cc2)c(=O)c1 [Example 20, 3-(5-(4-(4-(4-methyl-2-oxopyridin-1(2H)-yl)phenyl)piperazin-1-yl)pentyl)-1H-indole-5-carbonitrile] |
| 8.13 | 8.92 | COc1ccn(-c2ccc(N3CCN(CCCCc4c[nH]c5ccc(C#N)cc45)CC3)cc2)c(=O)c1 [Example 21, 3-(4-(4-(4-(4-methoxy-2-oxopyridin-1(2H)-yl)phenyl)piperazin-1-yl)butyl)-1H-indole-5-carbonitrile] |
| 8.74 | 9.21 | COc1ccn(-c2ccc(N3CCN(CCCc4c[nH]c5ccc(C#N)cc45)CC3)cc2)c(=O)c1 [Example 22, 3-(3-(4-(4-(4-methoxy-2-oxopyridin-1(2H)-yl)phenyl)piperazin-1-yl)propyl)-1H-indole-5-carbonitrile] |
| 7.92 |  | COc1ccn(-c2ccc(N3CCN(CCc4c[nH]c5ccc(C#N)cc45)CC3)cc2)c(=O)c1 [Example 23, 3-(2-(4-(4-(4-methoxy-2-oxopyridin-1(2H)-yl)phenyl)piperazin-1-yl)ethyl)-1H-indole-5-carbonitrile] |
| 8.26 | 7.92 | COc1ccn(-c2ccc(N3CCN(CCCCCc4c[nH]c5ccc(C#N)cc45)CC3)cc2)c(=O)c1 [Example 24, 3-(5-(4-(4-(4-methoxy-2-oxopyridin-1(2H)-yl)phenyl)piperazin-1-yl)pentyl)-1H-indole-5-carbonitrile] |
| 8.85 | 9.74 | N#Cc1ccc2[nH]cc(CCCCN3CCN(c4ccc(-n5cc(F)cc(F)c5=O)cc4)CC3)c2c1 [Example 25, 3-(4-(4-(4-(3,5-difluoro-2-oxopyridin-1(2H)-yl)phenyl)piperazin-1-yl)butyl)-1H-indole-5-carbonitrile] |
| 8.89 | 9.51 | N#Cc1ccc2[nH]cc(CCCN3CCN(c4ccc(-n5cc(F)cc(F)c5=O)cc4)CC3)c2c1 [Example 26, 3-(3-(4-(4-(3,5-difluoro-2-oxopyridin-1(2H)-yl)phenyl)piperazin-1-yl)propyl)-1H-indole-5-carbonitrile] |
| 8.26 | 7.17 | N#Cc1ccc2[nH]cc(CCN3CCN(c4ccc(-n5cc(F)cc(F)c5=O)cc4)CC3)c2c1 [Example 27, 3-(2-(4-(4-(3,5-difluoro-2-oxopyridin-1(2H)-yl)phenyl)piperazin-1-yl)ethyl)-1H-indole-5-carbonitrile] |
| 8.00 |  | N#Cc1ccc2[nH]cc(CCCCN3CCN(c4ccc(-n5ccc6ccccc6c5=O)cc4)CC3)c2c1 [Example 29, 3-(4-(4-(4-(1-oxoisoquinolin-2(1H)-yl)phenyl)piperazin-1-yl)butyl)-1H-indole-5-carbonitrile] |

| Structure (SMILES) | pIC50 [1] | pKi (human 5-HT1A receptor) |
| --- | --- | --- |
| N#Cc1ccc2[nH]cc(CCN3CCN(c4ccc(-n5ccccc5=O)cc4)CC3)c2c1 [Example 13, 3-(2-(4-(4-(2-oxopyridin-1(2H)-yl)phenyl)piperazin-1-yl)ethyl)-1H-indole-5-carbonitrile] | 8.59 | 7.27 |
